In US9962341B2, “Active pharmaceutical ingredient (API) comprising cannabinoids for use in the treatment of cancer” (GW Pharma Limited, priority 2014, dated 2018):
Read-outs that look alike come from different tables or passages of the source.

Experiments:
Type in all cases: cell-based
OVCAR3 = experiment: Cell viability (CellTiter-Blue, 72 h), OVCAR3 ovarian cancer cells; conditions: Homo sapiens, OVCAR-3
Method: (§1) The following cell lines were tested in this example: Lung Cancer (A549, NCI-H460); Pancreatic cancer (PANC1, Mia-Pa-Ca-2); Melanoma (WM115, A375); Ovarian cancer (OVCAR3, SKOV3); Gastric cancer (MKN45, HGC-27); Renal cancer (ACHN) and Bladder Cancer (RT112).
(§2) Each tumour cell line was maintained in vitro in RPMI 1640+10% heat inactivated FBS and 2 mM L-glutamine (growth media) at 37° C. in 5% CO2 and humidified conditions. The cells were harvested, washed, re-suspended into growth medium and counted. The cells were re-suspended into assay media (RPMI 1640+5% heat inactivated FBS+ and 2 mM L-glutamine) at 4×10^4 cells/ml (dependent upon cell type) and plated into the middle 240 wells of 384 well tissue culture plates (Corning CellBind, black-wall plates) 25 μl/well aliquots; 50 μl of growth media was aliquoted into the outer wells. There were 3 plates for each cell line.
(§3) The plates were incubated overnight at 37° C., in 5% humidified CO2.
(§4) The phytocannabinoid test compounds were prepared in 100% DMSO vehicle at a stock concentration of 20 and 40 mM.
(§5) Starting with the 20 mM stock in DMSO, this was serially diluted (2 fold) in DMSO in a 96-well plate, to 20 (no dilution), 10, 5, 2.5, 1.25, 0.625, 0.315, 0.157 and […]. Following this, 10 ul of each compound dilution was diluted into 990 ul of 1% (v/v) FBS media in a deep well block making the final concentrations of 200, 100, 50, 25, 12.5, 6.25, 3.125, 1.56 and 0.79 μM (2× final assay concentrations and 1% DMSO).
(§6) An equal volume of each cannabinoid in the combination (stock concentration 40 mM) was mixed together to make a stock of 20 mM of each cannabinoid in DMSO. This was serially diluted (2 fold) in DMSO in a 96-well plate, to 20 (no dilution), 10, 5, 2.5, 1.25, 0.625, 0.315, 0.157 and […]. Following this, 10 ul of each combination dilution was diluted into 990 ul of 1% (v/v) FBS media in a deep well block making the final concentrations of 200, 100, 50, 25, 12.5, 6.25, 3.125, 1.56 and 0.79 μM (2× final assay concentrations and 1% DMSO).
(§7) Cisplatin (stock of 1 mg/ml=3.33 mM in water) was diluted in 1% FBS media to give a stock concentration of 1 mM. This was then diluted in 1% FBS media from the stock solution to 200 μM, then serially diluted (3-fold) in 1% FBS media to 200 (no dilution), 66.66, 22.22, 7.41, 2.47, 0.82, 0.27, 0.09, 0.03 μM (2× final assay concentrations; no DMSO).
(§8) The plates were incubated for 72 h at 37° C. in 5% humidified CO2. To develop the plates, at 72 h, 10 μl of CellTiter-Blue™ reagent was added to each test/blank well.
(§9) The plates were incubated at 37° C., 5% humidified CO2. Fluorescence was measured using a Flex II Station plate reader (570 nm excitation wavelength, 600 nm emission wavelength, 590 nm cut-off) after 3 h.
(§10) The phytocannabinoid compounds CBD, CBGA, CBG, CBDA, THCV and THC were tested on a panel of lung (A549, NCI-H460), pancreatic (PANC1, Mia-Pa-Ca-2), melanoma (WM115, A375), ovarian (OVCAR3, SKOV3), gastric (MKN45, HGC-27), renal (ACHN) and bladder (RT112) cancer cell lines according to the protocol for 72 h in media containing 1% FBS.
(§11) The IC50 values for each phytocannabinoid and combination of CBD with the other phytocannabinoids was calculated for each cell line. The raw data values expressed in relative fluorescent units were normalised to the vehicle for each individual plate and any reduction in fluorescence indicated a decrease in viability.
(§12) This calculation was as described in Example 1 above.

MKN45 = experiment: Cell viability (CellTiter-Blue, 72 h), MKN45 gastric cancer cells; conditions: Homo sapiens, MKN-45
Method: as §1, §2, §3, §4, §5, §6, §7, §8, §9, §10, §11, §12

NCI-H460 = experiment: Cell viability (CellTiter-Blue, 72 h), NCI-H460 lung cancer cells; conditions: Homo sapiens
Method: as §1, §2, §3, §4, §5, §6
Taxotere SOC was prepared in 100% DMSO to give a stock concentration of 10 mM. This was diluted in DMSO from the stock solution to 200 μM, then serially diluted (3-fold) in DMSO to 200 (no dilution), 66.66, 22.22, 7.41, 2.47, 0.82, 0.27, 0.09, 0.03 μM. 10 ul of each of the taxotere dilutions was diluted in 990 ul of 1% (v/v) FBS media making the final concentrations of 2, 0.67, 0.22, 0.074, 0.0247, 0.0082, 0.0027 0.0009, 0.0003 μM (2× final assay concentrations and 1% DMSO).
as §8, §9, §10, §11, §12

[1] = OVCAR3, 1% FBS, 72 h, read-out: Cell line IC50 value
[2] = OVCAR3 cells, 1% FBS, read-out: Dm (potency, median effect)
[3] = MKN45, 1% FBS, 72 h, read-out: Cell line IC50 value
[4] = MKN45 cells, 1% FBS, read-out: Dm (potency, median effect)
[5] = NCI-H460, 72 h, read-out: Cell line IC50 value
[6] = NCI-H460, read-out: Dm (median effect dose)

| Compound | IC50 (OVCAR3; [1]) [µM] | IC50 (OVCAR3; [2]) [µM] | IC50 (MKN45; [3]) [µM] | IC50 (MKN45; [4]) [µM] | IC50 (NCI-H460; [5]) [µM] | IC50 (NCI-H460; [6]) [µM] |
| --- | --- | --- | --- | --- | --- | --- |
| CCCc1cc(O)c2c(c1)OC(C)(C)[C@@H]1CCC(C)=C[C@@H]21 [THCV, Tetrahydrocannabivarin] | 6.5 | 6.51 | 6.5 | 6.88 | 4.6 | 4.53 |
| C=C(C)[C@@H]1CCC(C)=C[C@H]1c1c(O)cc(CCCCC)c(C(=O)O)c1O [CBDA, Cannabidiolic acid] | 6.7 | 5.51 | 8.8 | 8.04 | 7.3 | 6.6 |
| CCCCCc1cc(O)c(C/C=C(\C)CCC=C(C)C)c(O)c1C(=O)O [CBGA, Cannabigerolic acid] | 6.1 | 6.41 | 6.5 | 6.4 | 6.2 | 4.03 |
| C=C(C)[C@@H]1CCC(C)=C[C@H]1c1c(O)cc(CCCCC)cc1O [CBD, Cannabidiol] | 2.8 | 2.14 | 3.4 | 3.91 | 2.5 | 2.55 |
| CCCCCc1cc(O)c(C/C=C(\C)CCC=C(C)C)c(O)c1 [CBG, Cannabigerol] | 5.3 | 4.33 | 4.3 | 4.16 | 4 | 3.96 |
| CC(=O)O[C@@]12CO[C@@H]1C[C@H](O)[C@@]1(C)C(=O)[C@H](O)C3=C(C)[C@@H](OC(=O)[C@H](O)[C@@H](NC(=O)OC(C)(C)C)c4ccccc4)C[C@@](O)([C@@H](OC(=O)c4ccccc4)[C@H]21)C3(C)C [Taxotere, Docetaxel, reference compound] |  |  |  |  | 0.0011 |  |
| CCCCCc1cc(O)c2c(c1)OC(C)(C)[C@@H]1CCC(C)=C[C@@H]21 [THC, Tetrahydrocannabinol, reference compound] | 5.9 | 4.42 | 4.2 | 4.42 | 3.8 | 3.28 |
